Source: article PMC5218480 (PLoS ONE, 2017)

Test system: MV-4-11 cells
Assay: Gene expression microarray analysis (Affymetrix PrimeView) and GSEA
Assay type: cell-based, human
Set-up: RFU PODN (11730768_x_at) / Fold change /veh PODN (11730768_x_at) / RFU LINC00158 (11744669_a_at) / Fold change /veh LINC00158 (11744669_a_at) / RFU DUSP10 (11751237_a_at) / Fold change /veh DUSP10 (11751237_a_at) / RFU ID3 (11757404_x_at) / Fold change /veh ID3 (11757404_x_at) / RFU PLEKHG5 (11737974_s_at) / Fold change /veh PLEKHG5 (11737974_s_at) / RFU LRRC4B (11730491_at) / Fold change /veh LRRC4B (11730491_at) / RFU GIMAP4 (11747438_a_at) / Fold change /veh GIMAP4 (11747438_a_at) / RFU KRT8 (11758183_x_at) / Fold change /veh KRT8 (11758183_x_at) / RFU CNN1 (11734310_a_at) / Fold change /veh CNN1 (11734310_a_at) / RFU VPS37D (11726825_at) / Fold change /veh VPS37D (11726825_at) / RFU C10orf10 (11716522_x_at) / Fold change /veh C10orf10 (11716522_x_at) / RFU KIR2DL2 /// KIR2DL4 /// KIR2DL5A /// KIR2DL5B /// KIR2DS1 /// KIR2DS2 /// KIR2DS3 /// KIR2DS4 /// KIR3DL3 /// KIR3DL3 /// KIR3DS1 (11738374_at) / Fold change /veh KIR2DL2 /// KIR2DL4 /// KIR2DL5A /// KIR2DL5B /// KIR2DS1 /// KIR2DS2 /// KIR2DS3 /// KIR2DS4 /// KIR3DL3 /// KIR3DL3 /// KIR3DS1 (11738374_at) / RFU C1QL1 (11718748_at) / Fold change /veh C1QL1 (11718748_at) / RFU TMPRSS4 (11747572_a_at) / Fold change /veh TMPRSS4 (11747572_a_at) / RFU HAMP (11756126_x_at) / Fold change /veh HAMP (11756126_x_at) / RFU RNFT2 (11725882_a_at) / Fold change /veh RNFT2 (11725882_a_at) / RFU NR4A2 (11747474_a_at) / Fold change /veh NR4A2 (11747474_a_at) / RFU ABCC12 (11746883_a_at) / Fold change /veh ABCC12 (11746883_a_at) / RFU TMEM136 (11760407_x_at) / Fold change /veh TMEM136 (11760407_x_at) / RFU CLDN22 /// WWC2 (11732394_at) / Fold change /veh CLDN22 /// WWC2 (11732394_at) / RFU HLA-DPB1 (11760878_x_at) / Fold change /veh HLA-DPB1 (11760878_x_at) / RFU SPINT1 (11716480_a_at) / Fold change /veh SPINT1 (11716480_a_at) / RFU GAP43 (11754022_s_at) / Fold change /veh GAP43 (11754022_s_at) / RFU A4GNT (11735810_at) / Fold change /veh A4GNT (11735810_at) / RFU PRB3 (11715151_x_at) / Fold change /veh PRB3 (11715151_x_at) / RFU TUBB4B (11761932_at) / Fold change /veh TUBB4B (11761932_at) / RFU CAPN14 (11732068_a_at) / Fold change /veh CAPN14 (11732068_a_at) / RFU TMCC2 (11721928_a_at) / Fold change /veh TMCC2 (11721928_a_at) / RFU IRGQ (11745062_a_at) / Fold change /veh IRGQ (11745062_a_at) / RFU FAM174B (11720279_a_at) / Fold change /veh FAM174B (11720279_a_at) / RFU TMPRSS4 (11748680_a_at) / Fold change /veh TMPRSS4 (11748680_a_at) / RFU FAM212B (11763350_a_at) / Fold change /veh FAM212B (11763350_a_at) / RFU PLEKHG5 (11743358_a_at) / Fold change /veh PLEKHG5 (11743358_a_at) / RFU ZSCAN30 (11745921_a_at) / Fold change /veh ZSCAN30 (11745921_a_at) / RFU CMKLR1 (11741424_a_at) / Fold change /veh CMKLR1 (11741424_a_at) / RFU LOC101060620 /// MAPK8IP1 (11723275_at) / Fold change /veh LOC101060620 /// MAPK8IP1 (11723275_at) / RFU SPTSSB (11747773_x_at) / Fold change /veh SPTSSB (11747773_x_at) / RFU PRSS12 (11739890_at) / Fold change /veh PRSS12 (11739890_at) / RFU BIN1 (11741810_x_at) / Fold change /veh BIN1 (11741810_x_at) / RFU WNT11 (11732464_a_at) / Fold change /veh WNT11 (11732464_a_at) / RFU C10orf10 (11716521_a_at) / Fold change /veh C10orf10 (11716521_a_at) / RFU C5orf56 (11738089_at) / Fold change /veh C5orf56 (11738089_at) / RFU CYB561 (11721691_x_at) / Fold change /veh CYB561 (11721691_x_at) / RFU ANKRD19P (11752326_a_at) / Fold change /veh ANKRD19P (11752326_a_at) / RFU OR2T12 /// OR2T33 /// OR2T8 (11738714_s_at) / Fold change /veh OR2T12 /// OR2T33 /// OR2T8 (11738714_s_at) / RFU VCAN (11748164_a_at) / Fold change /veh VCAN (11748164_a_at) / RFU JSRP1 (11732532_at) / Fold change /veh JSRP1 (11732532_at) / RFU KRTAP10-11 (11738290_x_at) / Fold change /veh KRTAP10-11 (11738290_x_at) / RFU MYO3A (11730013_a_at) / Fold change /veh MYO3A (11730013_a_at) / RFU EBF3 (11725865_a_at) / Fold change /veh EBF3 (11725865_a_at) / RFU CAMK2N1 (11719241_x_at) / Fold change /veh CAMK2N1 (11719241_x_at) / RFU C5orf56 (11738088_a_at) / Fold change /veh C5orf56 (11738088_a_at) / RFU OLFML3 (11715873_a_at) / Fold change /veh OLFML3 (11715873_a_at) / RFU LOC100653217 /// NTM (11731650_a_at) / Fold change /veh LOC100653217 /// NTM (11731650_a_at) / RFU MAPK11 (11762145_a_at) / Fold change /veh MAPK11 (11762145_a_at) / RFU FIZ1 (11724087_x_at) / Fold change /veh FIZ1 (11724087_x_at) / RFU OASL (11726364_x_at) / Fold change /veh OASL (11726364_x_at) / RFU SOX15 (11748057_x_at) / Fold change /veh SOX15 (11748057_x_at) / RFU CD79A (11719716_a_at) / Fold change /veh CD79A (11719716_a_at) / RFU HIST1H1D (11736915_at) / Fold change /veh HIST1H1D (11736915_at) / RFU CASKIN2 (11723855_a_at) / Fold change /veh CASKIN2 (11723855_a_at) / RFU LOC730098 (11760151_x_at) / Fold change /veh LOC730098 (11760151_x_at) / RFU OR4N2 (11742367_at) / Fold change /veh OR4N2 (11742367_at) / RFU PRRT2 (11749266_a_at) / Fold change /veh PRRT2 (11749266_a_at) / RFU SNX32 (11753110_a_at) / Fold change /veh SNX32 (11753110_a_at) / RFU CDHR5 (11726645_a_at) / Fold change /veh CDHR5 (11726645_a_at) / RFU RCAN1 (11760418_a_at) / Fold change /veh RCAN1 (11760418_a_at) / RFU FAM167A (11723789_a_at) / Fold change /veh FAM167A (11723789_a_at) / RFU FAM26E (11764081_at) / Fold change /veh FAM26E (11764081_at) / RFU ISYNA1 (11749810_s_at) / Fold change /veh ISYNA1 (11749810_s_at) / RFU ACY1 (11761880_at) / Fold change /veh ACY1 (11761880_at) / RFU 11764098_at / Fold change /veh 11764098_at / RFU SAMD14 (11745864_x_at) / Fold change /veh SAMD14 (11745864_x_at) / RFU NPB (11741838_a_at) / Fold change /veh NPB (11741838_a_at) / RFU TMPRSS6 (11731388_a_at) / Fold change /veh TMPRSS6 (11731388_a_at) / RFU KRTAP10-2 (11738614_at) / Fold change /veh KRTAP10-2 (11738614_at) / RFU ARHGAP8 /// PRR5-ARHGAP8 (11727945_x_at) / Fold change /veh ARHGAP8 /// PRR5-ARHGAP8 (11727945_x_at) / RFU KRTAP5-7 /// NADSYN1 (11734609_at) / Fold change /veh KRTAP5-7 /// NADSYN1 (11734609_at) / RFU RASL12 (11751679_a_at) / Fold change /veh RASL12 (11751679_a_at) / RFU CDKN2B (11736163_a_at) / Fold change /veh CDKN2B (11736163_a_at) / RFU PRF1 (11729649_at) / Fold change /veh PRF1 (11729649_at) / RFU, ZNF638 /// ZNF638-IT1 / Fold change vs veh, ZNF638 /// ZNF638-IT1 / RFU, PANK3 / Fold change vs veh, PANK3 / RFU, SH3YL1 / Fold change vs veh, SH3YL1 / RFU, ZEB2 / Fold change vs veh, ZEB2 / RFU, NRIP1 / Fold change vs veh, NRIP1 / RFU, PTTG1IP / Fold change vs veh, PTTG1IP / RFU, CAPN2 / Fold change vs veh, CAPN2 / RFU, MED14 / Fold change vs veh, MED14 / RFU, SNORA58 / Fold change vs veh, SNORA58 / RFU, C1orf63 / Fold change vs veh, C1orf63 / RFU, LRRFIP1 / Fold change vs veh, LRRFIP1 / RFU, NDUFAF7 / Fold change vs veh, NDUFAF7 / RFU, SLC12A2 / Fold change vs veh, SLC12A2 / RFU, IBTK / Fold change vs veh, IBTK / RFU, ESF1 / Fold change vs veh, ESF1 / Fold change vs veh, TMEM50B / RFU, TAOK1 / Fold change vs veh, TAOK1 / RFU, ACBD3 / Fold change vs veh, ACBD3 / RFU, TMA16 / Fold change vs veh, TMA16 / RFU, RWDD3 / Fold change vs veh, RWDD3 / RFU, BCAT1 / Fold change vs veh, BCAT1 / RFU, EDEM3 / Fold change vs veh, EDEM3 / RFU, TMEM33 / Fold change vs veh, TMEM33 / RFU, WDR75 / Fold change vs veh, WDR75 / RFU, AHCTF1 / Fold change vs veh, AHCTF1 / RFU, TFRC / Fold change vs veh, TFRC / RFU, ZDHHC17 / Fold change vs veh, ZDHHC17 / RFU, NOM1 / Fold change vs veh, NOM1 / RFU, ARL8B / Fold change vs veh, ARL8B / RFU, ZBTB11 / Fold change vs veh, ZBTB11 / RFU, TAMM41 / Fold change vs veh, TAMM41 / RFU, KIAA1704 /// LOC100996395 / Fold change vs veh, KIAA1704 /// LOC100996395 / RFU, ING1 / Fold change vs veh, ING1 / RFU, TRMT61B / Fold change vs veh, TRMT61B / RFU, FUBP3 / Fold change vs veh, FUBP3 / RFU, TP53 / Fold change vs veh, TP53 / RFU, TNKS2 / Fold change vs veh, TNKS2 / RFU, ZFP14 / Fold change vs veh, ZFP14 / RFU, ACTR2 / Fold change vs veh, ACTR2 / RFU, PPP3R1 / Fold change vs veh, PPP3R1 / RFU, PIK3R1 / Fold change vs veh, PIK3R1 / RFU, HNRNPA1 / Fold change vs veh, HNRNPA1 / RFU, RNF170 / Fold change vs veh, RNF170 / RFU, ZNF28 / Fold change vs veh, ZNF28 / RFU, RNGTT / Fold change vs veh, RNGTT / RFU, OGT / Fold change vs veh, OGT / RFU, BRD1 / Fold change vs veh, BRD1 / RFU, MARS / Fold change vs veh, MARS / RFU, ZNF655 / Fold change vs veh, ZNF655 / RFU, FAHD1 / Fold change vs veh, FAHD1 / RFU, BDP1 / Fold change vs veh, BDP1 / RFU, LRRCC1 / Fold change vs veh, LRRCC1 / RFU, ARID1A / Fold change vs veh, ARID1A / RFU, ZNF146 / Fold change vs veh, ZNF146 / RFU, ZNF330 / Fold change vs veh, ZNF330 / RFU, GPN3 / Fold change vs veh, GPN3 / RFU, C9orf123 / Fold change vs veh, C9orf123 / RFU, N4BP2L2 / Fold change vs veh, N4BP2L2 / RFU, ARFIP1 / Fold change vs veh, ARFIP1 / RFU, FAM179B / Fold change vs veh, FAM179B / RFU, BCL10 / Fold change vs veh, BCL10 / RFU, UHRF1BP1L / Fold change vs veh, UHRF1BP1L / RFU, BET1 / Fold change vs veh, BET1 / RFU, CNOT2 / Fold change vs veh, CNOT2 / RFU, ZNF268 / Fold change vs veh, ZNF268 / Fold change vs veh, ZNF507 / RFU, DGCR2 / Fold change vs veh, DGCR2 / RFU, WDSUB1 / Fold change vs veh, WDSUB1 / Fold change vs veh, HSP90B1 /// MIR3652 / RFU, ADSS / Fold change vs veh, ADSS / RFU, GK / Fold change vs veh, GK / RFU, ZNF148 / Fold change vs veh, ZNF148 / RFU, TAF9 / Fold change vs veh, TAF9 / RFU, SLC1A5 / Fold change vs veh, SLC1A5 / RFU, SLMO2 / Fold change vs veh, SLMO2 / RFU, ABCC4 / Fold change vs veh, ABCC4 / RFU, LOC101060439 /// RAP1B / Fold change vs veh, LOC101060439 /// RAP1B / RFU, RFX7 / Fold change vs veh, RFX7 / RFU, GTPBP10 / Fold change vs veh, GTPBP10 / RFU, CNEP1R1 / Fold change vs veh, CNEP1R1 / RFU, BIVM-ERCC5 /// ERCC5 / Fold change vs veh, BIVM-ERCC5 /// ERCC5 / RFU, ILF3 / Fold change vs veh, ILF3 / RFU 11762660_at / Fold change /veh 11762660_at / RFU VCAN (11757783_s_at) / Fold change /veh VCAN (11757783_s_at) / RFU DDX43 (11728927_at) / Fold change /veh DDX43 (11728927_at) / RFU KRT8 (11758188_x_at) / Fold change /veh KRT8 (11758188_x_at) / RFU NKD1 (11759106_at) / Fold change /veh NKD1 (11759106_at) / RFU SRD5A1 (11742802_a_at) / Fold change /veh SRD5A1 (11742802_a_at) / RFU TPSAB1 /// TPSB2 (11721975_s_at) / Fold change /veh TPSAB1 /// TPSB2 (11721975_s_at) / RFU GSTM3 (11746129_a_at) / Fold change /veh GSTM3 (11746129_a_at) / RFU IL23R (11737362_x_at) / Fold change /veh IL23R (11737362_x_at) / RFU TMEM51 (11727254_a_at) / Fold change /veh TMEM51 (11727254_a_at) / RFU PIWIL2 (11732686_x_at) / Fold change /veh PIWIL2 (11732686_x_at) / RFU ORM1 (11744905_x_at) / Fold change /veh ORM1 (11744905_x_at) / RFU CCDC152 (11743942_at) / Fold change /veh CCDC152 (11743942_at) / RFU ECM1 (11717891_a_at) / Fold change /veh ECM1 (11717891_a_at) / RFU IL23R (11748794_a_at) / Fold change /veh IL23R (11748794_a_at) / RFU TNFAIP8L3 (11732012_x_at) / Fold change /veh TNFAIP8L3 (11732012_x_at) / RFU MBOAT4 (11741988_at) / Fold change /veh MBOAT4 (11741988_at) / RFU 11764193_at / Fold change /veh 11764193_at / RFU TMEM53 (11763286_at) / Fold change /veh TMEM53 (11763286_at) / RFU MAGEB2 (11727129_at) / Fold change /veh MAGEB2 (11727129_at) / RFU TMEM200A (11744735_a_at) / Fold change /veh TMEM200A (11744735_a_at) / RFU CCDC152 (11751479_a_at) / Fold change /veh CCDC152 (11751479_a_at) / RFU FAM211A (11726209_a_at) / Fold change /veh FAM211A (11726209_a_at) / RFU RGS16 (11746705_a_at) / Fold change /veh RGS16 (11746705_a_at) / RFU VCAN (11755009_s_at) / Fold change /veh VCAN (11755009_s_at) / RFU RHOB (11743442_s_at) / Fold change /veh RHOB (11743442_s_at) / RFU RGS16 (11720943_a_at) / Fold change /veh RGS16 (11720943_a_at) / RFU RGS16 (11720944_at) / Fold change /veh RGS16 (11720944_at) / RFU, VPS4B / Fold change vs veh, VPS4B / RFU, CREB1 / Fold change vs veh, CREB1 / RFU, DNAJC13 / Fold change vs veh, DNAJC13 / RFU, GNAQ / Fold change vs veh, GNAQ / RFU, CDK5R1 / Fold change vs veh, CDK5R1 / RFU, ZRANB3 / Fold change vs veh, ZRANB3 / RFU, CUL4A / Fold change vs veh, CUL4A / RFU, CCNY / Fold change vs veh, CCNY / RFU, UFL1 / Fold change vs veh, UFL1 / RFU, COG3 / Fold change vs veh, COG3 / RFU, DIAPH2 / Fold change vs veh, DIAPH2 / RFU, SKA2 / Fold change vs veh, SKA2 / RFU, AFF3 / Fold change vs veh, AFF3 / RFU, LMF1 / Fold change vs veh, LMF1 / RFU, IPO11 / Fold change vs veh, IPO11 / RFU, DFFB / Fold change vs veh, DFFB / RFU, FOXP1 / Fold change vs veh, FOXP1 / RFU, CARD8 / Fold change vs veh, CARD8 / RFU, STRN3 / Fold change vs veh, STRN3 / RFU, ADK / Fold change vs veh, ADK / RFU, RASSF2 / Fold change vs veh, RASSF2 / RFU, WIPF1 / Fold change vs veh, WIPF1 / RFU, LARP1B / Fold change vs veh, LARP1B / RFU, RASA1 / Fold change vs veh, RASA1 / RFU, RB1 / Fold change vs veh, RB1 / RFU, PPFIA1 / Fold change vs veh, PPFIA1 / RFU, MAT2A / Fold change vs veh, MAT2A / RFU, CCT5 / Fold change vs veh, CCT5 / RFU, WDR92 / Fold change vs veh, WDR92 / RFU, CUX1 / Fold change vs veh, CUX1 / RFU, TTC7A / Fold change vs veh, TTC7A / RFU, TMEM135 / Fold change vs veh, TMEM135 / RFU, DEPTOR / Fold change vs veh, DEPTOR / RFU, CPM / Fold change vs veh, CPM / RFU, DNAJB6 / Fold change vs veh, DNAJB6 / RFU, CACNA2D3 / Fold change vs veh, CACNA2D3 / RFU, DTX4 / Fold change vs veh, DTX4 / RFU, TFCP2 / Fold change vs veh, TFCP2 / RFU, GMCL1 /// GMCL1P1 / Fold change vs veh, GMCL1 /// GMCL1P1 / RFU, AEBP2 / Fold change vs veh, AEBP2 / RFU, SNHG1 /// SNORD22 /// SNORD25 /// SNORD26 /// SNORD27 /// SNORD28 /// SNORD29 /// SNORD31 / Fold change vs veh, SNHG1 /// SNORD22 /// SNORD25 /// SNORD26 /// SNORD27 /// SNORD28 /// SNORD29 /// SNORD31 / Fold change (Aza/veh), C12orf56 (ProbeSet 11735607_a_at) / Fold change (ACY-1035/veh), C12orf56 (ProbeSet 11735607_a_at) / Fold change (Aza/veh), FGFR1OP (ProbeSet 11751329_s_at) / Fold change (ACY-1035/veh), FGFR1OP (ProbeSet 11751329_s_at) / Fold change (Aza/veh), VPS36 (ProbeSet 11739960_a_at) / Fold change (ACY-1035/veh), VPS36 (ProbeSet 11739960_a_at) / RFU SYPL1 (11715823_x_at) / Fold change /veh SYPL1 (11715823_x_at) / RFU IGFBP7 (11715501_s_at) / Fold change /veh IGFBP7 (11715501_s_at) / RFU REEP3 (11722064_at) / Fold change /veh REEP3 (11722064_at) / RFU IGLL1 (11728026_x_at) / Fold change /veh IGLL1 (11728026_x_at): dose or concentration left out as unconfirmed
Conditions: MV-4-11 cells, 48 hours

Nc1ccc(-c2cccs2)cc1NC(=O)c1ccc2c(c1)cc(C1CC1)n2CCN1CCOCC1 [ACY-1035]
RFU LOC730098 (11760151_x_at): 35.48 RFU
